Measured values published in patent US6639089B2, “Anticancer agents, perfumes or foods and drinks” (Soda Aromatic Co., Ltd., priority 2001, dated 2003).
Read-outs that look alike come from different tables or passages of the source.

Key:
[1] = system: human fibrosarcoma cell line HT1080; assay: Cancer cell mobility test (cancer invasion inhibitory action), Boyden double chamber with Matrigel/fibronectin; format: cell-based; settings: for Tumor Invasion (cell/mm^2) 5 μM / Tumor Invasion (cell/mm^2) 10 μM: administered to cells 18 hours in advance, HT1080, counted after 3.5 hours; for Cell Invasion Rate at 10 μM (%): relative to no addition = 100%, lower value = higher inhibition
Method: (§1) A Boyden double chamber was used, in which a porous film with 8 μm pores was placed, the upper surface of the porous film being coated with Matrigel as a reconstructed membrane, the lower surface of the porous film being coated with fibronectin as an extracellular matrix. In the upper compartment of the chamber, 200,000 cells of human fibrosarcoma cell line HT1080 were inoculated, and after 3.5 hours, Diff Quick staining was performed and the number of invasive cancer cells invading the lower compartment was counted using a CCD camera/multibioscanner. The compounds of the present invention were administered to cancer cells for 18 hours in advance at amounts of 5 μM and 10 μM.

[2] = system: melanoma cell line B16BL6; assay: as above; format: cell-based; settings: for Tumor Invasion (cell/mm^2) 5 μM / Tumor Invasion (cell/mm^2) 20 μM: administered to cells 18 hours in advance, B16BL6, counted after 3.5 hours; for activity at 20 µM: Mus musculus
Method: as §1, with “melanoma” for “human fibrosarcoma”, “B16BL6, a type of skin cancer,” for “HT1080”, “20” for “10”

[3] = system: B-16 melanoma cell line BL; assay: Cancer metastasis inhibitory action test (in vivo), lung metastasis after caudal vein injection of melanoma cells; settings: lungs on day 14, mean of 6 mice
Method: Cancer cells of B-16 melanoma cell line BL were incubated in a 5% CO2 incubator using an MEM culture medium (containing 10% FBS), and the individual cells were dissociated with a 2.5% trypsin solution. The melanoma cells were injected into the caudal vein of BDF1 mice (SPF). The number of cells injected was 2×10^5/0.2 ml/mouse. As test compounds for cancer metastasis inhibitory action, 15-hydroxypentadecanoic acid, 15-pentadecanolide, and 5-cyclohexadecen-1-one were used, and as a positive control compound, Mitomycin Kyowa S (manufactured by Kyowa Hakko Kokyo Co., Ltd.) was used. The test compounds and the positive control compound were dissolved or suspended in olive oil and administered as shown in Table 5 below. (In the case of intravenous administration, micellisation was performed using Tween before administration.) The dosage of the test compounds was 100 mg/kg each time in the case of peritoneal administration, and 10 mg/kg each time in the case of intravenous administration. The dosage of Mitomycin Kyowa S as the positive control compound was 0.5 mg/kg each time by peritoneal administration.
From day 10 post-implant onward, metastatic cancer cells of mice in the satellite group were observed, and on day 14 when the size of the cells was believed to be suitable for evaluation, the mice were sacrificed and the lungs were enucleated. The number of metastatic cancer cells was then counted.

[4] = system: Rat spontaneous mammary cancer cells (SST-2); assay: Cancer metastasis inhibitory action test (in vivo), lung metastasis of subcutaneously implanted SST-2; settings: day 7 pre-implant to day 34 post-implant; for Average number of metastatic colonies formed: lung, after 35 days; for Lung weight / Subcutaneous tumor weight: sacrifice after 35 days
Method: Rat spontaneous mammary cancer cells (SST-2) (1×10^5 cells) were subcutaneously implanted in the backs of Wister male rats (5 rats for each group). After 35 days, the rats were sacrificed, and the lung weight and the number of colonies formed were measured to observe the extent of lung metastasis of the SST-2. With respect to the groups to which 5-cyclohexadecen-1-one as the compound of the present invention was administered, 20 mg/rat and 5 mg/rat were orally administered and subcutaneously injected, from day 7 pre-implant to day 34 post-implant, and the subcutaneous tumor weight, the lung weight, and the number of metastatic colonies formed were compared with those of the control group, to which no treatment was provided.

[5] = system: adenocarcinoma 755 cell line; assay: Test for action of killing cancer (in vivo), subcutaneous tumor weight; set-up: species or system mice; settings: subcutaneous injection daily at 10 mg/kg for 5 days; tumors excised day 10 post-implant; control group 9.0 g
Method: In the backs of 6-week-old mice (first filial hybrid of C57BL/6 and DBA/2), 10^6 cells of adenocarcinoma 755 cell line were subcutaneously implanted. After 24 hours, a solution in which each sample was suspended, at a concentration of 50 mg/ml, in a physiological saline solution of 0.25% surfactant Nikkol HCO-60 (manufactured by Nikko Chemicals Co., Ltd.; polyoxyethylene (40) hydrogenated castor oil), was subcutaneously injected into a group of 8 mice, daily at 10 mg/kg for 5 days. On day 10 post-implant of adenocarcinoma 755 cells, the mice were sacrificed and tumors were excised. The average weight (g) of the tumors was obtained. As a result, the average weight of the control group was 9.0 g, while the average weight of the group to which 5-cyclohexadecen-1-one had been administered was as small as 1.9 g. The significant action of killing cancer was thus confirmed.

[6] = system: melanoma cell line B16BL6; settings: comparison derivatives of L-ascorbic acid (JP-A-8-291075); cited from earlier work
[7] = B16-BL6, read-out: Cell Invasion Rate at 20 μM (%)
[8] = B16-BL6, 20 μM, relative to no addition = 100%, lower value = higher inhibition, read-out: Cell Invasion Rate at 20 μM (%)
[9] = Peritoneal administration, 100 mg/kg each time
[10] = Subcutaneous injection 5 mg/rat
[11] = Subcutaneous injection 20 mg/rat

Compound | Tumor Invasion (cell/mm^2) 5 μM [1] [cell/mm^2] | Tumor Invasion (cell/mm^2) 10 μM [1] [cell/mm^2] | Cell Invasion Rate at 10 μM (%) [1] [%] | Tumor Invasion (cell/mm^2) 5 μM [2] [cell/mm^2] | Tumor Invasion (cell/mm^2) 20 μM ([2]; 20 μM) [cell/mm^2] | activity at 20 µM [2, 8] [%] | other results
CNC(=O)[C@@H](NC(=O)[C@H](CC(C)C)[C@H](O)C(=O)NO)C(C)(C)C [Marimastat, reference compound] | 269 | 172 | 42.6 |  |  |  | 
O=C(O)CCCCCCCCCCCO [12-hydroxydodecanoic acid] |  |  |  | 324 ± 23 | 246 ± 30 |  | activity at 20 µM [2, 7]: 48.9%
O=C(O)CCCCCCCCCCCCCCCO [16-hydroxyhexadecanoic acid] |  |  |  | 301 ± 47 | 199 ± 32 |  | activity at 20 µM [2, 7]: 39.6%
O=C1CCCCCCCCCCCCCC1 [Cyclopentadecanone] |  |  |  | 459 ± 39 | 491 ± 35 |  | activity at 20 µM [2, 7]: 109%
CCCCCCCCCCCC1CCCC(=O)O1 (centres unmarked) [5-hexadecanolide] | 144 | 111 | 27.5 |  |  |  | 
11(12)-pentadecen-15-olide |  |  |  | 234 ± 17 | 146 ± 31 |  | Cell Invasion Rate at 20 μM (%) ([2]; 20 μM, relative to no addition = 100%, lower value = higher inhibition): 29.0%
O=C1CCCCCCCCCCCO1 [12-dodecanolide] |  |  |  | 405 ± 38 | 461 ± 67 | 91.7 | 
12-oxahexadecen-16-olide | 218 | 109 | 20.8 |  |  |  | 
O=C(O)CCCCCCCCCCC(=O)CCCO [15-hydroxy-12-oxopentadecanoic acid] |  |  |  | 268 ± 34 | 119 ± 25 | 23.7 | 
O=C(O)CCCCCCCCCCCC(=O)CCCO [16-hydroxy-13-oxohexadecanoic acid] | 214 | 121 | 31.8 |  |  |  | 
CCOC(=O)CCCCCCCCCC=CCCCO [ethyl-15-hydroxy-11(12)-pentadecenoate] | 129 | 106 | 28.6 |  |  |  | 
O=C1CCCCCCCCCCCCCCO1 [15-pentadecanolide] |  |  |  | 386 ± 26 | 324 ± 27 | 64.4 | Number of metastatic cells ([3]; Intravenous administration, 10 mg/kg each time, 3 times on day of implantation): 52.2; Number of metastatic cells [3, 9]: 134.3
O=C1CCCC=CCCCCCCCCCC1 [5-cyclohexadecen-1-one] |  |  |  | 285 ± 36 | 143 ± 14 | 31.6 | Average number of metastatic colonies formed ([4]; Oral administration 5 mg/rat): 28.4; Lung weight ([4]; Oral administration 5 mg/rat): 1.5 g; Subcutaneous tumor weight ([4]; Oral administration 5 mg/rat): 46.4 g; Average number of metastatic colonies formed ([4]; Oral administration 20 mg/rat): 17.5; Lung weight ([4]; Oral administration 20 mg/rat): 1.4 g; Subcutaneous tumor weight ([4]; Oral administration 20 mg/rat): 44.7 g; Average number of metastatic colonies formed [4, 10]: 15.7; Lung weight [4, 10]: 1.3 g; Subcutaneous tumor weight [4, 10]: 43.5 g; Average number of metastatic colonies formed [4, 11]: 10.9; Lung weight [4, 11]: 1.1 g; Subcutaneous tumor weight [4, 11]: 42.0 g; Number of metastatic cells [3, 9]: 35.6; average weight of the tumors [5]: 1.9 g
CCCCCCCCCCCCCCCC(=O)OC[C@H](O)[C@H]1OC(=O)C(O)=C1O [L-ascorbyl 6-O-palmitate] |  |  |  |  |  |  | concentration at which a 25% cancer cell invasion inhibition was obtained [6]: approximately 110 μM
O=C1CCCCCCCC=CCCCCCCO1 [9-hexadecen-16-olide] |  |  |  | 257 ± 42 | 113 ± 19 | 22.5 | 
CO[C@@]12[C@H](COC(N)=O)C3=C(C(=O)C(C)=C(N)C3=O)N1C[C@@H]1N[C@@H]12 [Mitomycin, reference compound] |  |  |  |  |  |  | Number of metastatic cells ([3]; Peritoneal administration, 0.5 mg/kg each time, 3 times on day of implantation): 21.2
O=C1CCCCCCCCCCCC(=O)OCCO1 [Ethylene tridecanedioate] | 226 | 84 | 16.0 |  |  |  | 
O=C(O)CCCCCCCCCCCCCCO [15-hydroxypentadecanoic acid] |  |  |  | 289 ± 45 | 135 ± 11 | 26.8 | Number of metastatic cells [3, 9]: 78.0
O=C1CCCCCCCCCCCCCCCO1 [16-hexadecanolide] |  |  |  | 370 ± 62 | 293 ± 43 | 58.3 | 
O=C1O[C@H]([C@@H](O)CO)C(O)=C1OP(=O)(O)O [L-ascorbyl 2-phosphate] |  |  |  |  |  |  | concentration at which a 25% cancer cell invasion inhibition was obtained [6]: approximately 280 μM
